Experimental data: US9012443B2 (Amgen Inc., priority 2011, dated 2015)
Structures can show the parent of a compound that is named as a salt.

Target: Nav 1.7 (Homo sapiens (Human), UniProt Q15858)
Assay: Nav 1.7 in vitro PX assay (PatchXpress whole cell voltage clamp)
Assay type: cell-based
Details: 293 cells, human Nav1.7, partially inactivated state; read-out: Nav1.7 PX IC50 IP
Method: Nav 1.7 In Vitro PX Assay
293 cells stably transfected with human Nav1.7 were recorded in whole cell voltage clamp mode with the PatchXpress automated electrophysiology system (Molecular Devices, LLC, Sunnyvale, Calif.). Compound effects were measured on a partially inactivated state of the sodium channel. Cells were clamped to a holding potential yielding 20 to 50% inactivation. To elicit sodium current, channels were activated by pulsing to −10 mV for 20 msec. […] A single concentration of test compound was applied to cells for a duration of 3 minutes. Peak sodium current was measured at the end of the compound addition period to determine percent inhibition. Three to five cells were tested per concentration, and IC50 curves were fitted to percent inhibition as a function of concentration.

Nav 1.7, sequence (Q15858 whole entry): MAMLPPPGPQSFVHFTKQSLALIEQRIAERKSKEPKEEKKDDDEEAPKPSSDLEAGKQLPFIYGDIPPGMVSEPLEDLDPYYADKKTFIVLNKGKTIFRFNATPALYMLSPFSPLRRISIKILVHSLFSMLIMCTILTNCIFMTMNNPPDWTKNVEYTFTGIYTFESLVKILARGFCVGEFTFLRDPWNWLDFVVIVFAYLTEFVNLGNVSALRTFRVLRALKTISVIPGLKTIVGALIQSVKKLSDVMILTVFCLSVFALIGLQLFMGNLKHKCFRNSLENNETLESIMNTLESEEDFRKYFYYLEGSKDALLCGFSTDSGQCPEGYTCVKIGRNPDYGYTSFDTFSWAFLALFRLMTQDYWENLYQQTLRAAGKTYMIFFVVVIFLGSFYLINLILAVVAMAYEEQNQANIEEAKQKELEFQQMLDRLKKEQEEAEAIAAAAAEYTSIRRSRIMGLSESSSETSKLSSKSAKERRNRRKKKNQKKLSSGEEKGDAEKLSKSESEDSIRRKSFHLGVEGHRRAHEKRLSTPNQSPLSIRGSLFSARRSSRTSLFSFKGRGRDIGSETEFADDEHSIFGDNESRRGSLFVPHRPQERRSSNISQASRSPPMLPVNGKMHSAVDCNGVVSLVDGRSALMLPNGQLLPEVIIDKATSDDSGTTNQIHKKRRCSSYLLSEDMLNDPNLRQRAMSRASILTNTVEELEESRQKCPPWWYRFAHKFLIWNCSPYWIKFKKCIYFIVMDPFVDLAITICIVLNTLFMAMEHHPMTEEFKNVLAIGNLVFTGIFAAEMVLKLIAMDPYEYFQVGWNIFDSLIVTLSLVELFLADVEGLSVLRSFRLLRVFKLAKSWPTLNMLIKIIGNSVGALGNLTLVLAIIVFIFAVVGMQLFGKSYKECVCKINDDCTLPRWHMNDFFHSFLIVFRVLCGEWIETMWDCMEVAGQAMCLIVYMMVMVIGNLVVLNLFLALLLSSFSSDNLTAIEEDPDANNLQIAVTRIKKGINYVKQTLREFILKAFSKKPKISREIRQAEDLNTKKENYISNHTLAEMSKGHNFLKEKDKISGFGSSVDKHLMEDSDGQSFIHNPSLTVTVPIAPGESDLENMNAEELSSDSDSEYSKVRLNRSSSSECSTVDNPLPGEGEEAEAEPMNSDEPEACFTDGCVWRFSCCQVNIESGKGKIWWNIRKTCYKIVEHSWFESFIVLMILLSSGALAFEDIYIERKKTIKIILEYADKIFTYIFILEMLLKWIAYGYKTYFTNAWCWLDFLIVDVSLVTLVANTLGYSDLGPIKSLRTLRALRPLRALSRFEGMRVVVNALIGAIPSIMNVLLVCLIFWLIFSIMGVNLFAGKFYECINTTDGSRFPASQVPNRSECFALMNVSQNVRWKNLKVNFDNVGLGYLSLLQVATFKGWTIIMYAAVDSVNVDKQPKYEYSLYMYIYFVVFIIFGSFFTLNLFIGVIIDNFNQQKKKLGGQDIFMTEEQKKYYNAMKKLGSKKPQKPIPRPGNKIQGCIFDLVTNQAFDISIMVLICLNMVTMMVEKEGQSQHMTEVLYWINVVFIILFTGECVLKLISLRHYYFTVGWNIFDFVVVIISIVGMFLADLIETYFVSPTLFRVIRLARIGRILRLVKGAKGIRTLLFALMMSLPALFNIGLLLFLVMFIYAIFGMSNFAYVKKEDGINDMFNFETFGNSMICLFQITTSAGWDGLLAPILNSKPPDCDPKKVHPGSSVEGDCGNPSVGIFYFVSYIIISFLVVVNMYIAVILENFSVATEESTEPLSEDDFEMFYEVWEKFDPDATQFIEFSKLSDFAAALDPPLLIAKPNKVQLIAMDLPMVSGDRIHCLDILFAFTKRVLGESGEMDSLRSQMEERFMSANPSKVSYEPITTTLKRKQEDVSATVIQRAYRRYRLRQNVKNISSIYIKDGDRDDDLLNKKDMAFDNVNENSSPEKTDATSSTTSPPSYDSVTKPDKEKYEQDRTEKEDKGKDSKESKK

SMILES	IC50 [nM]
COc1cc(-c2cc(F)cc(F)c2)ccc1-c1nccc2cc(S(=O)(=O)Nc3nnco3)ccc12 [Example 372, 1-(3′,5′-DIFLUORO-3-METHOXY-[1,1′-BIPHENYL]-4-YL)-N-(1,3,4-OXADIAZOL-2-YL)ISOQUINOLINE-6-SULFONAMIDE]	16600
COc1cc(-c2cccnc2)c(F)cc1-c1nccc2cc(S(=O)(=O)Nc3nncs3)ccc12 [Example 367, 1-(5-FLUORO-2-METHOXY-4-(PYRIDIN-3-YL)PHENYL)-N-(1,3,4-THIADIAZOL-2-YL)ISOQUINOLINE-6-SULFONAMIDE]	1420
COc1cc(OCC(F)(F)F)ccc1-c1nccc2cc(S(=O)(=O)Nc3ccncn3)ccc12 [Example 362, 1-(2-METHOXY-4-(2,2,2-TRIFLUOROETHOXY)PHENYL)-N-(PYRIMIDIN-4-YL)ISOQUINOLINE-6-SULFONAMIDE]	1070
O=S(=O)(Nc1nccs1)c1ccc2c(-c3ccc(F)cc3OC3CCOCC3)nccc2c1 [Example 414, 1-(4-FLUORO-2-((TETRAHYDRO-2H-PYRAN-4-YL)OXY)PHENYL)-N-(THIAZOL-2-YL)ISOQUINOLINE-6-SULFONAMIDE]	7110
CC(C)(O)c1ccccc1-c1nccc2cc(S(=O)(=O)Nc3nccs3)ccc12 [Example 384, 1-(2-(2-HYDROXYPROPAN-2-YL)PHENYL)-N-(THIAZOL-2-YL)ISOQUINOLINE-6-SULFONAMIDE]	6710
Cc1ccccc1-c1nccc2cc(S(=O)(=O)Nc3nccs3)ccc12 [Example 178, N-(THIAZOL-2-YL)-1-(O-TOLYL)ISOQUINOLINE-6-SULFONAMIDE]	1850
COc1cc(C(F)(F)F)ccc1-c1nccc2cc(S(=O)(=O)Nc3nc(C(F)(F)F)cs3)ccc12 [Example 428, 1-(2-METHOXY-4-(TRIFLUOROMETHYL)PHENYL)-N-(4-(TRIFLUOROMETHYL)THIAZOL-2-YL)ISOQUINOLINE-6-SULFONAMIDE]	4570
COc1ccc(C2=CCOCC2)cc1-c1nccc2cc(S(=O)(=O)Nc3ccncn3)ccc12 [Example 353, 1-(5-(3,6-DIHYDRO-2H-PYRAN-4-YL)-2-METHOXYPHENYL)-N-(PYRIMIDIN-4-YL)ISOQUINOLINE-6-SULFONAMIDE]	5170
O=S(=O)(Nc1nccs1)c1ccc2c(-c3ccccc3Cl)nccc2c1 [Example 179, 1-(2-CHLOROPHENYL)-N-(THIAZOL-2-YL)ISOQUINOLINE-6-SULFONAMIDE]	1300
COc1cc(-c2c(C)ccnc2F)ccc1-c1nccc2cc(S(=O)(=O)Nc3ccncn3)ccc12 [Example 480, 1-(4-(2-FLUORO-4-METHYLPYRIDIN-3-YL)-2-METHOXYPHENYL)-N-(PYRIMIDIN-4-YL)ISOQUINOLINE-6-SULFONAMIDE]	2770
COc1ccccc1-c1cncc2cc(S(=O)(=O)Nc3ccncn3)ccc12 [Example 287, 4-(2-METHOXYPHENYL)-N-(PYRIMIDIN-4-YL)ISOQUINOLINE-7-SULFONAMIDE HYDROCHLORIDE]	4150
COc1ncc(C)cc1-c1nccc2cc(S(=O)(=O)Nc3nccs3)ccc12 [Example 411, 1-(2-METHOXY-5-METHYLPYRIDIN-3-YL)-N-(THIAZOL-2-YL)ISOQUINOLINE-6-SULFONAMIDE]	685
COc1nc(-c2ccc(F)c(F)c2)ccc1-c1nccc2cc(S(=O)(=O)Nc3ccncn3)ccc12 [Example 499, 1-(6-(3,4-DIFLUOROPHENYL)-2-METHOXYPYRIDIN-3-YL)-N-(PYRIMIDIN-4-YL)ISOQUINOLINE-6-SULFONAMIDE]	830
COc1cc(-c2cccnc2OC)ccc1-c1nccc2cc(S(=O)(=O)Nc3ccncn3)ccc12 [Example 482, 1-(2-METHOXY-4-(2-METHOXYPYRIDIN-3-YL)PHENYL)-N-(PYRIMIDIN-4-YL)ISOQUINOLINE-6-SULFONAMIDE]	778
COc1cc(-c2ccc3[nH]ccc3c2)ccc1-c1nccc2cc(S(=O)(=O)Nc3ccncn3)ccc12 [Example 489, 1-(4-(1H-INDOL-5-YL)-2-METHOXYPHENYL)-N-(PYRIMIDIN-4-YL)ISOQUINOLINE-6-SULFONAMIDE]	1830
COc1nc(Cl)ccc1-c1nccc2cc(S(=O)(=O)Nc3nccs3)ccc12 [Example 408, 1-(6-CHLORO-2-METHOXYPYRIDIN-3-YL)-N-(THIAZOL-2-YL)ISOQUINOLINE-6-SULFONAMIDE]	986
COc1cc(C(F)(F)F)ccc1-c1ccnc2cc(S(=O)(=O)Nc3ccncn3)ccc12 [Example 279, 4-(2-METHOXY-4-(TRIFLUOROMETHYL)PHENYL)-N-(PYRIMIDIN-4-YL)QUINOLINE-7-SULFONAMIDE]	580
NC(=O)COc1cc(F)ccc1-c1nccc2cc(S(=O)(=O)Nc3nccs3)ccc12 [Example 417, 2-(5-FLUORO-2-(6-(N-(THIAZOL-2-YL)SULFAMOYL)ISOQUINOLIN-1-YL)PHENOXY)ACETAMIDE]	1230
COc1ccccc1-c1n[nH]c(=O)c2cc(S(=O)(=O)Nc3ncns3)ccc12 [Example 508, 1-(2-METHOXYPHENYL)-4-OXO-N-(1,2,4-THIADIAZOL-5-YL)-3,4-DIHYDROPHTHALAZINE-6-SULFONAMIDE]	1300
O=S(=O)(Nc1ncns1)c1ccc2c(N3CCC[C@H]3c3cccnc3)cccc2c1 (single isomer, unassigned) [Example 86]	62.7

SMILES	IC50 [nM]
COc1cc(C(F)(F)F)ccc1-c1nccc2cc(S(=O)(=O)Nc3ncc(Cl)s3)ccc12 [Example 420, N-(5-CHLOROTHIAZOL-2-YL)-1-(2-METHOXY-4-(TRIFLUOROMETHYL)PHENYL)ISOQUINOLINE-6-SULFONAMIDE]	367
COc1cc(C(F)(F)F)ccc1-c1nccc2cc(S(=O)(=O)Nc3nnc(Cl)s3)ccc12 [Example 425, N-(5-CHLORO-1,3,4-THIADIAZOL-2-YL)-1-(2-METHOXY-4-(TRIFLUOROMETHYL)PHENYL)ISOQUINOLINE-6-SULFONAMIDE]	2210
COc1ccccc1-c1ccnc2cc(S(=O)(=O)Nc3ccncn3)ccc12 [Example 281, 4-(2-METHOXYPHENYL)-N-(PYRIMIDIN-4-YL)QUINOLINE-7-SULFONAMIDE]	1930
Cc1cc(C#N)ccc1-c1ncnc2cc(S(=O)(=O)Nc3nccs3)ccc12 [Example 542]	5020
COc1cc(-c2ccc(C)o2)ccc1-c1nccc2cc(S(=O)(=O)Nc3ccncn3)ccc12 [Example 461]	1780
COc1cc(C2(F)COC2)ccc1-c1nc(C)nc2cc(S(=O)(=O)Nc3nccs3)ccc12 [Example 516, 4-(4-(3-FLUOROOXETAN-3-YL)-2-METHOXYPHENYL)-2-METHYL-N-(THIAZOL-2-YL)QUINAZOLINE-7-SULFONAMIDE]	1050
COc1cc(Oc2ccccc2F)ccc1-c1nccc2cc(S(=O)(=O)Nc3ccncn3)ccc12 [Example 465, 1-(4-(2-FLUOROPHENOXY)-2-METHOXYPHENYL)-N-(PYRIMIDIN-4-YL)ISOQUINOLINE-6-SULFONAMIDE]	567
COc1cc(-c2ccc(C)nc2)ccc1-c1nccc2cc(S(=O)(=O)Nc3ccncn3)ccc12 [Example 477, 1-(2-METHOXY-4-(6-METHYLPYRIDIN-3-YL)PHENYL)-N-(PYRIMIDIN-4-YL)ISOQUINOLINE-6-SULFONAMIDE]	4040
COc1nc(C)ccc1-c1nccc2cc(S(=O)(=O)Nc3nccs3)ccc12 [Example 412, 1-(2-METHOXY-6-METHYLPYRIDIN-3-YL)-N-(THIAZOL-2-YL)ISOQUINOLINE-6-SULFONAMIDE]	1030
COC[C@H]1CCCN1c1ncnc2cc(S(=O)(=O)Nc3nccs3)ccc12 [Example 534, (R)-4-(2-(METHOXYMETHYL)PYRROLIDIN-1-YL)-N-(THIAZOL-2-YL)QUINAZOLINE-7-SULFONAMIDE]	29300
COc1cc(C#N)ccc1-c1nc(C)nc2cc(S(=O)(=O)Nc3nccs3)ccc12 [Example 517, 4-(4-CYANO-2-METHOXYPHENYL)-2-METHYL-N-(THIAZOL-2-YL)QUINAZOLINE-7-SULFONAMIDE]	1280
COc1cc(C(F)(F)F)ccc1-c1ccnc2c(C)c(S(=O)(=O)Nc3nccs3)ccc12 [Example 328, 4-(2-METHOXY-4-(TRIFLUOROMETHYL)PHENYL)-8-METHYL-N-(THIAZOL-2-YL)QUINOLINE-7-SULFONAMIDE]	6870
COc1ncc(F)cc1-c1nccc2cc(S(=O)(=O)Nc3nccs3)ccc12 [Example 410, 1-(5-FLUORO-2-METHOXYPYRIDIN-3-YL)-N-(THIAZOL-2-YL)ISOQUINOLINE-6-SULFONAMIDE]	1670
COc1ccccc1-c1ncc(C#N)c2cc(S(=O)(=O)Nc3nccs3)ccc12 [Example 400, 4-CYANO-1-(2-METHOXYPHENYL)-N-(THIAZOL-2-YL)ISOQUINOLINE-6-SULFONAMIDE]	1330
COc1cc(C(F)(F)F)ccc1-c1nccc2cc(S(=O)(=O)Nc3ccon3)ccc12 [Example 423]	1340
CC(C#N)Oc1cc(F)ccc1-c1nccc2cc(S(=O)(=O)Nc3nccs3)ccc12 (stereo not drawn) [Example 415, 1-(2-(1-CYANOETHOXY)-4-FLUOROPHENYL)-N-(THIAZOL-2-YL)ISOQUINOLINE-6-SULFONAMIDE]	1070
COc1cc(C(F)(F)F)ccc1-c1nccc2cc(S(=O)(=O)Nc3ncco3)ccc12 [Example 389, 1-(2-METHOXY-4-(TRIFLUOROMETHYL)PHENYL)-N-(OXAZOL-2-YL)ISOQUINOLINE-6-SULFONAMIDE]	2790
COc1cc(C(F)(F)F)ccc1-c1ccnc2cc(S(=O)(=O)Nc3nccs3)c(OC)cc12 [Example 327, 6-METHOXY-4-(2-METHOXY-4-(TRIFLUOROMETHYL)PHENYL)-N-(THIAZOL-2-YL)QUINOLINE-7-SULFONAMIDE]	2340
N#CCOc1cc(Cl)ccc1-c1nccc2cc(S(=O)(=O)Nc3ccncn3)ccc12 [Example 376, 1-(4-CHLORO-2-(CYANOMETHOXY)PHENYL)-N-(PYRIMIDIN-4-YL)ISOQUINOLINE-6-SULFONAMIDE 2,2,2-TRIFLUOROACETATE]	2940
